Laboratory results taken from US7005297B2, “Use of neuroactive compounds” (Council of Scientific and Industrial Research, priority 2003, dated 2006).
Marks after values point to notes of the source that are not given here.

Key:
Drosophila melanogaster [1] = test: negative geotaxis assay, height climbed by individual flies; format: in vivo
Experimental: (§1) Unless otherwise mentioned, standard methods of fly manipulation were followed. Standard fly medium consisting of agar-agar, maize powder, brown sugar, dried yeast and nipagin was used. Flies were cultured at 22±1° C., 60% RH, and 12 hrs light (9 AM to 9 PM) and 12 hours dark cycle. D. melanogaster wild type Oregon-R strain was used in the experiment. To obtain males for control and drug treatment, flies from identical cultures grown in glass vials were first allowed to lay eggs in milk bottles containing medium. Flies were shifted to fresh bottles every 12 hr. First 4 sets of bottles were discarded. Flies that emerged in subsequent bottles were only used. Those that emerged in the beginning were first discarded and then flies were collected twice at 12 hr interval. Flies collected each time were kept separately in a single bottle. Two days after first collection, males and females from both the bottles were separated. Males were then pooled together and shifted to a new bottle. Flies were used for control or drug treatment two days later.
Following morning after pooling males for treatment, drugs (Sigma-Aldrich Co, St. Louis, U.S.A.) were first dissolved in distilled water at following concentration: 33.3 mg/ml of strychnine (STR), 40 mg/ml of pentylenetetrazol (PTZ), 20 mg/ml of tetraethylammonium chloride (TEA), 10 mg/ml of lithium […] (LICA) and 2 mg/ml of nicotine (NICO). Appropriate volume of freshly made drug solutions were then poured in molten fly media, and mixed thoroughly, to achieve a final concentration of 3.33 mg/ml of STR, 4 mg/ml of PTZ, 2 mg/ml of TEA, 1 mg/ml of LICA, and 0.2 mg/ml of NICO. For control, i.e., normal food (NF), distilled water of same volume as drug solution was added in the medium and mixed. Following this, the molten media was dispensed in glass vials, stored overnight at 4° C. and then used for above treatment of flies. Thirty male flies were shifted to each of the […] treatment vials, NF, STR, PTZ, TEA, LICA and NICO. Flies were maintained at 22±1° C., 60% RH, and 12 hrs light (9 AM to 9 PM) and 12 hours dark cycle.
On 22nd day of the beginning of drug treatment, three males from each treatment were separately mated to a single virgin female each. The females were grown on NF and were never exposed to any drug at any time. The F1 progenies resulting from each pair mating were pooled together before being further used. F2 generation was obtained through mating in mass the F1 progenies. F1 to F2 flies were never exposed to any drug at any time.
Negative geotaxis assays for measuring height climbed and climbing speed, and horizontal locomotion assay for measuring distance walked—were performed at room temperature, between 9 AM to 9 PM. They were all performed at a specified area in a room, where same light sources were always used. While measuring various locomotor activities, extreme care was taken to ensure that the room is quiet, and the table onto which assays were performed undisturbed and vibration free. Utmost care was taken to ensure identical handling of flies, in minutest details. For measuring height climbed, climbing speed and distance walked, a single fly was randomly selected at a time. This was achieved by first inverting flies from a given treatment vial into an empty vial and then continuously and gently shaking and inverting both the vials in such a way that a single fly is finally trapped in the empty vial. Once trapped, all the three locomotor activities were measured using the same fly, height climbed, climbing speed and distance walked, in that order. One fly each from NF, STR, PTZ, PILO, TEA, LICA, and ESD, selected randomly, was first scored and then the same exercise was repeated for another two flies. Once a fly was scored for all the three locomotor activities, it was discarded. Flies were particularly checked for intact legs and wings, before they were used in negative geotaxis and horizontal locomotion assays.

Drosophila melanogaster [2] = details: F1 male and female progeny of drug-fed fathers, routine examination over 30 days
Experimental: as §1
Following morning after pooling males for treatment, drugs (Sigma-Aldrich Co, St. Louis, U.S.A.) were first dissolved in distilled water at following concentration: 33.3 mg/ml of strychnine (STR), 40 mg/ml of pentylenetetrazol (PTZ), 20 mg/ml of tetraethylammonium chloride (TEA), 10 mg/ml of lithium chloride (LICA) and 2 mg/ml of nicotine (NICO). […]

[3] = F1 males never exposed to drug, fathers drug-fed, assayed on 31st day of emergence, n=30, NF control 25.1
[4] = F2 females (second batch) never exposed to drug, grandfathers drug-fed, 8th day of emergence, n=30, NF control 21.3
[5] = drug-fed parent males, day 13 of treatment, drug in fly medium (STR 3.33, PTZ 4, TEA 2, LICA 1, NICO 0.2 mg/ml), n=30, NF control 20.86, asterisks = t-test vs NF (*5%, **1%, ***0.1%)
[6] = drug exposed parent males, day 13 of treatment

SMILES	Height climbed by flies, Mean (F1) (Drosophila melanogaster [1]; [3])	Height climbed by flies, Mean (F2) (Drosophila melanogaster [1]; [4])	Height climbed by flies, Mean (Parents) (Drosophila melanogaster [1]; [5])	change in height climbed compared to normal food (NF) (Drosophila melanogaster [1]; [6])	gross locomotor activity compared to control (Drosophila melanogaster [2])	Height climbed by flies, Mean (F1) (Drosophila melanogaster [1]; in vivo)	Height climbed by flies, Mean (F2) (Drosophila melanogaster [1]; in vivo)	Height climbed by flies, Mean (Parents) (Drosophila melanogaster [1]; in vivo)	change in height climbed compared to normal food (NF) (Drosophila melanogaster [1]; in vivo)
O=C1C[C@@H]2OCC=C3CN4CC[C@]56c7ccccc7N1[C@H]5[C@H]2[C@H]3C[C@H]46 [STR, strychnine]	16.56*** cm	29.83*** cm	28** cm						
O=C([O-])[O-].[Li+].[Li+] [LICA, lithium carbonate]	17.7*** cm	27.53** cm	32.96*** cm	increase in the height climbed					
CN1CCCC1c1cccnc1 (centres unmarked) [NICO, nicotine]					climbed very slowly	10.86*** cm	29.36*** cm	32.16*** cm	increase in the height climbed
C1CCc2nnnn2CC1 [PTZ, pentylenetetrazol]				increase in the height climbed					
CC[N+](CC)(CC)CC.[Cl-] [TEA, tetraethylammonium chloride]	12.43*** cm	29.46*** cm	32.4*** cm	increase in the height climbed					
